Here are results for one molecule from patent US20100190843A1, “Tubulin Isotype Screening in Cancer Therapy Using Halichondrin B Analogs” (Eisai R&D Management Co., Ltd., priority 2004, published 2010).

Structures are written as SMILES.

The test system of one experiment is MDA-MB-435. As to the kind of experiment: Cell growth inhibition assay (methylene blue-based). Conditions: Homo sapiens, continuous exposure 4 or 7 days, at least three experiments. The text has this:
(§1) The following human breast cancer cell lines were obtained from the ATCC. Cells were maintained according to ATCC-recommended culture conditions. AU565 (ATCC Catalog No. ATCC Catalog No. CRL-2351), BT-20 (ATCC Catalog No. HTB-19), MCF7 (ATCC Catalog No. HTB22), MDA-MB-231 (ATCC Catalog No. HTB-26), MDA-MB-435 (ATCC Catalog No. HTB-129), MDA-MB-468 (ATCC Catalog No. HTB-132), HCC38 (ATCC Catalog No. CRL-2314), HCC70 (ATCC Catalog No. CRL-2315), HCC1143 (ATCC Catalog No. CRL-2321), HCC1428 (ATCC Catalog No. CRL-2327), HCC1500 (ATCC Catalog No. CRL-2329), HCC1806 (ATCC Catalog No. CRL-2335), HCC1954 (ATCC Catalog No. CRL-2338), HCC2218 (ATCC Catalog No. CRL-2343), UACC-812 (ATCC Catalog No. CRL-1897), UACC-893 (ATCC Catalog No. CRL-1902), ZR-75-1 (ATCC Catalog No. CRL-1500), ZR-75-30 (ATCC Catalog No. CRL-1504).
(§2) Cultured human breast cancer cells were placed in 96-well plates and grown in the continuous presence of test compounds for 4 or 7 days. To expose the cells to test compounds for 7 days, medium was replaced with fresh medium containing compounds after 4 days of exposure and cells were incubated for 3 additional days. Cell growth was assessed using modifications (Amin et al., Cancer Res., 47:6040-6045, 1987; incorporated herein by reference) of a methylene blue-based microculture assay (Finlay et al., Anal. Biochem., 139:272-277, 1984; incorporated herein by reference).
(§3) To investigate the possible expression of PgP by the cell lines used in this study, the antiproliferative effects of paclitaxel were determined in the presence and absence of verapamil, a known inhibitor of PgP.

Another experiment concerns HCC1500. The description is as above. Conditions: Homo sapiens, continuous exposure 4 or 7 days, at least three experiments.
Source text: as §1, §2, §3

Another experiment deals with AU565. Described as above. Conditions: Homo sapiens, continuous exposure 4 or 7 days, at least three experiments.
Source text: as §1, §2, §3

A further experiment relates to BT-20. The experiment is described as above. The conditions noted are these: Homo sapiens, continuous exposure 4 or 7 days, at least three experiments.
Source text: as §1, §2, §3

The subject of the next experiment is UACC-812. The description is as above. The conditions noted are these: Homo sapiens, continuous exposure 4 or 7 days, at least three experiments.
Source text: as §1, §2, §3

For another experiment, the system named is HCC70. The description is as above. Conditions: Homo sapiens, continuous exposure 4 or 7 days, at least three experiments.
Source text: as §1, §2, §3

The test system of another experiment is HC-2218. Described as above. Conditions: Homo sapiens, continuous exposure 4 or 7 days, at least three experiments.
Source text: as §1, §2, §3

A further experiment relates to HCC1143. The experiment is described as above. Conditions: Homo sapiens, continuous exposure 4 or 7 days, at least three experiments.
Source text: as §1, §2, §3

A further experiment has as its system MDA-MB-468. The description is as above. The conditions noted are these: Homo sapiens, continuous exposure 4 or 7 days, at least three experiments.
Source text: as §1, §2, §3

A further experiment concerns HCC1954. Described as above. Conditions: Homo sapiens, continuous exposure 4 or 7 days, at least three experiments.
Source text: as §1, §2, §3

For another experiment, the system named is HCC1428. The description is as above. Conditions: Homo sapiens, continuous exposure 4 or 7 days, at least three experiments.
Source text: as §1, §2, §3

The test system of a further experiment is UACC-893. The description is as above. The conditions noted are these: Homo sapiens, continuous exposure 4 or 7 days, at least three experiments.
Source text: as §1, §2, §3

In another experiment the test system is HCC38. Described as above. The conditions noted are these: Homo sapiens, continuous exposure 4 or 7 days, at least three experiments.
Source text: as §1, §2, §3

In a further experiment the test system is ZR-75-30. The experiment is described as above. The conditions noted are these: Homo sapiens, continuous exposure 4 or 7 days, at least three experiments.
Source text: as §1, §2, §3

The next experiment relates to HCC1806. Described as above. The conditions noted are these: Homo sapiens, continuous exposure 4 or 7 days, at least three experiments.
Source text: as §1, §2, §3

The subject of the next experiment is MDA-MB-231. Described as above. The conditions noted are these: Homo sapiens, continuous exposure 4 or 7 days, at least three experiments.
Source text: as §1, §2, §3

The test system of the next experiment is MCF-7. The experiment is described as above. The conditions noted are these: Homo sapiens, MCF7, continuous exposure 4 or 7 days, at least three experiments.
Source text: as §1, §2, §3

A further experiment deals with ZR-75-1. The experiment is described as above. The conditions noted are these: Homo sapiens, continuous exposure 4 or 7 days, at least three experiments.
Source text: as §1, §2, §3

The test system of a further experiment is HCC1419. Described as above. The conditions noted are these: Homo sapiens, continuous exposure 4 or 7 days, at least three experiments.
The test system of experiment [1] is panel of 19 human breast cancer cell lines. As to the kind of experiment: Cell growth inhibition assay, whole panel. It is filed as cell-based.
Source text: as §1
Cultured human breast cancer cells were placed in 96-well plates and grown in the continuous presence of test compounds for 4 or 7 days. […] Cell growth was assessed using modifications (Amin et al., Cancer Res., 47:6040-6045, 1987; incorporated herein by reference) of a methylene blue-based microculture assay (Finlay et al., Anal. Biochem., 139:272-277, 1984; incorporated herein by reference).
Antiproliferative effects of four tubulin-binding anticancer agents were evaluated by a methylene blue-based cell growth inhibin assay in a panel of 19 human breast cancer cell lines. […]

For `C=C1C[C@@H]2CC[C@@]34C[C@H]5O[C@H]6[C@@H](O3)C3O[C@H](CCC3O[C@H]6C5O4)CC(=O)CC3[C@H](CC4O[C@@H](CCC1O2)C[C@@H](C)C4=C)O[C@H](C[C@H](O)CN)[C@@H]3OC` (stereo partly drawn) [E7389], the half-inhibitory concentration (IC50) with MDA-MB-435 came out at 0.29 nM; in the experiment with HCC1500 it was 0.56 nM; in the experiment on AU565, 0.65 nM; with BT-20, 0.82 nM; in the experiment on UACC-812 it was 1.17 nM; in the experiment with HCC70, 0.63 nM. The IC50 in the experiment with HC-2218 turned out to be 1.14 nM; in the experiment on HCC1143 it was 0.43 nM; in the experiment with MDA-MB-468 it was 0.45 nM; with HCC1954, 0.37 nM; with HCC1428 it was 0.53 nM; with UACC-893, 0.31 nM. The IC50 with HCC38 worked out at 0.4 nM; with ZR-75-30, 1.8 nM; in the experiment with HCC1806, 0.74 nM; with MDA-MB-231 it was 1.75 nM; in the experiment with MCF-7, 1.45 nM; in the experiment with ZR-75-1, 1.19 nM. Further, the IC50 in the experiment with HCC1419 was 1.59 nM; in experiment [1] (Homo sapiens, range over the panel of 19 cell lines) it was 0.29 to 1.8 nM. Also, the “fold-difference between IC50's in the most sensitive and the least sensitive cell line” value in [1] (panel of 19 breast cancer cell lines) turned out to be 6.2 fold.

In general, IC50 refers to the midpoint of a concentration-inhibition curve. A low value points to higher potency.
